Test results taken from US10590081B2, “Guanidine compounds and use thereof” (ImmunoMet Therapeutics Inc., priority 2015, dated 2020).
Structures can show the parent of a compound that is named as a salt.

What was measured:
[1] = test system: SK-MEL-28 cells; assay: Cytotoxicity in low glucose condition (MTT assay); assay type: cell-based; conditions: Homo sapiens, SK-MEL-28, 72 h, 0.75 mM glucose, 72 hours treatment, read-out: SK-MEL-280.75 mM glucose cell viability (IC50 μM)
Source text: Cytotoxicity Assay in Low Glucose Condition
The inhibition of oxidative phosphorylation (OXPHOS) is not cytotoxic to cells in normal glucose condition, because it is postulated that normal cells have compensatory mechanism under energy stress conditions such as low glucose. However OXPHOS inhibitors show cytotoxic effect on cells in the glucose deprived condition (BirsoyK, 2014). The glucose deprived condition is observed in tumor microenvironment potentially due to poor angiogenesis. Therefore the OXPHOS inhibitors may show anti-cancer effect on cancer cells in low glucose condition that may depict tumor microenvironment.
The compounds of the present invention were evaluated their cytotoxicity in SK-MEL-28, melanoma with 0.75 mM glucose supplement. The cytotoxic effect is compared with the cytotoxicity caused by phenformin. The cytotoxicity in low glucose condition is correlated with inhibition of oxygen consumption in mitochondria.
SK-MEL-28 (HTB-72) is a melanoma cell line obtained from ATCC (MA) and cultured in RPMI 1640 media (Lifetechnologies, CA) with supplement of 10% FBS and antibiotic-antimycotic (Lifetechnologies, CA). RPMI 1640 (−Glucose) was used to prepare low glucose media and 0.75 mM glucose was supplied with D-(+)-glucose solution from Sigma. SK-MEL-28 cells were separated from culture plate using 0.5% trypsin-EDTA and 1,250 cells were plated in 96-well plate with low glucose media. After incubation at 37° C. for 24 hour, 5% CO2, the cells were treated with the compounds of present invention in FBS-free media for 72 hours. The cytotoxicity was measured by the MTT (AMRESCO, OH) assay. NADH-dependent cellular oxidoreductase reduces MTT to its insoluble […] with purple color. The enzyme depends on cell number or energy state of cells. 10 μl of 5 mg/ml MTT solution was added to each well of the assay plate and skip the well for blank. The plate was incubated at 37° C. and 5% CO2 for 2 hours. The MTT solution was removed from each well and 100 μl of DMSO was added. The plate was read by VICTOR X3 Multilabel Counter at the wavelength of 550 nm. In Table 2, the levels of IC50 are evaluated by the following criteria.
According to the concentration of compound for killing the half of cell populations (the levels of IC50), the compounds were classified into A, B and C, when the compounds were treated on SK-MEL-28 cells at 0.75 mM glucose.

[2] = test system: A549 cells; assay: Test for inhibition of OCR and enhancement of ECAR (XF Analyzer); assay type: cell-based; conditions: Homo sapiens, 24 hrs treatment, oxygen consumption rate
Source text: Measurement of Mitochondrial Complex I Inhibition
The electron transfer complex in mitochondria is composed of 5 complexes. The complex I accept electrons from NADH produced from glycolysis and TCA cycle and the electrons move to complex […] and the electron is finally transferred to O2 and water molecule is generated. During the electron transfer, proton gradient is generated and the chemical gradient is a driving source to synthesize ATP at complex V. The mitochondrial inhibition of complex I indirectly assessed by measuring the oxygen consumption rate (OCR) at complex IV. […] The solution outside of cells becomes acidic (lower pH) as lactate is transported to outside of cells. OCR and Extracellular acidification rate (ECAR) are determined by XF Analyzer (Seahorse Biosciences).
A549 cells were purchased from American Type Tissue Culture Collection (CCL-185™) and cultured in RPMI 1640 supplied with 10% fetal bovine serum (FBS) and antibiotic-antimycotic (Lifetech, CA). A549 cells were separated with 0.5% Trypsin-EDTA and 3,000 cells were plated on 1 mg/ml poly-D-lysine (Sigma, P6407) coated XF 96 well […]. A549 cells were allowed to adhere to the wells for 24 hours under the condition of temperature, 37° C. and 5% CO2. The sensor cartridge of XF Analyzer was soaked in 200 μl of Calibrant solution (Seahorse, MA) in a clear 96-well plate at 37° C. for 24 hours. The compounds of the present invention were diluted with RPMI 1640 without FBS, transferred to A549 cells on XF 96 well plate, and incubated further for 23 hours at 37° C. and 5% CO2. After incubation, the compound solution was exchanged with pre-warmed and pH adjusted (pH7.4) XF assay media (Seahorse) supplied with 15 mM D-glucose (Sigma), 15 mM sodium pyruvate (Lifetechnologies, CA) and 4 mM L-glutamine (Lifetechnologies, CA). The compounds of present invention were prepared in XF Assay media and added to the assay plate. The assay plate was equilibrated in XF Analyzer for 1 hour, and the reading were started by sensor cartridge. The cytotoxicity assay was followed using Cyquant (Lifetechnologies, CA) in order to calibrate the inhibition with cytotoxicity of compounds. The concentrations of the compounds were tested at 0, 0.5, 1, 5, 10 and 20 μM and IC50 value was obtained from the inhibited values. That is, from OCR inhibition values at each concentration of the compound, IC50 was calculated according to Prism's dose response curve fitting.
In Table 1, the levels of OCR IC50 are evaluated by the following.
According to the test results of the compounds, the compounds were classified into A, B and C.

Structure (SMILES) | IC50 [1] [µM] | IC50 [2] [µM]
N=C(NC(=N)N1CCC(F)(F)CC1)Nc1ccccc1 [Example 1, N—(N-phenylcarbamimidoyl)-4,4-difluoropiperidine-1-carboximidamide hydrochloride] | > 15 | 
N=C(NC(=N)N1CCC(F)(F)CC1)Nc1ccc2c(c1)CCCC2 [Example 2, N—(N-(5,6,7,8-teterhydronaphthalene-2-yl)carbamimidoyl)-4,4-difluoro piperidine-1-carboximidamide hydrochloride] | 6 to 15 | > 4
N=C(NC(=N)N1CCC(F)(F)CC1)Nc1ccc(Cl)c(Cl)c1 [Example 3, N—(N-(3,4-dichlorophenyl)carbamimidoyl)-4,4-difluoropiperidine-1-carboximidamide hydrochloride] | < 6 | > 4
N=C(NC(=N)N1CCC(F)(F)CC1)Nc1ccccc1Br [Example 4, N—(N-(2-bromophenyl)carbamimidoyl)-4,4-difluoropiperidine-1-carboximidamide hydrochloride] | > 15 | 
N=C(NC(=N)N1CCC(F)(F)CC1)Nc1cccc(Br)c1 [Example 5, N—(N-(3-bromophenyl)carbamimidoyl)-4,4-difluoropiperidine-1-carboximidamide hydrochloride] | 6 to 15 | > 4
N=C(NC(=N)N1CCC(F)(F)CC1)Nc1ccc(Br)cc1 [Example 6, N—(N-(4-bromophenyl)carbamimidoyl)-4,4-difluoropiperidine-1-carboximidamide hydrochloride] | 6 to 15 | > 4
CSc1ccc(NC(=N)NC(=N)N2CCC(F)(F)CC2)cc1 [Example 8, N—(N-(4-(methythio)phenyl)carbamimidoyl)-4,4-difluoropiperidine-1-carboximidamide hydrochloride] | 6 to 15 | > 4
N=C(NC(=N)N1CCC(F)(F)CC1)Nc1ccc(SC(F)(F)F)cc1 [Example 9, N—(N-(4-(trifluoromethythio)phenyl)carbamimidoyl)-4,4-difluoro piperidine-1-carboximidamide hydrochloride] | < 6 | 2 to 4
CC(C)c1ccc(NC(=N)NC(=N)N2CCC(F)(F)CC2)cc1 [Example 10, N—(N-(4-isopropylphenyl)carbamimidoyl)-4,4-difluoropiperidine-1-carboximidamide hydrochloride] | 6 to 15 | > 4
N=C(NC(=N)N1CCC(F)(F)CC1)Nc1ccc(F)c(Cl)c1 [Example 11, N—(N-(3-chloro-4-fluorophenyl)carbamimidoyl)-4,4-difluoropiperidine-1-carboximidamide hydrochloride] | 6 to 15 | > 4
N=C(NC(=N)N1CCC(F)(F)CC1)Nc1ccc(OC(F)(F)F)cc1 [Example 17, N—(N-(4-(trifluoromethoxy)phenyl)carbamimidoyl)-4,4-difluoropiperidine-1-carboximidamide acetate] |  | 2 to 4
N=C(NC(=N)N1CCC(F)(F)CC1)Nc1ccc(I)c(Cl)c1 [Example 18, N—(N-(3-chloro-4-iodophenyl)carbamimidoyl)-4,4-difluoropiperidine-1-carboximidamide acetate] |  | 2 to 4
N=C(NC(=N)N1CCC(F)(F)C1)Nc1ccc(OC(F)(F)F)c(Br)c1 [Example 39, N—(N-(3-bromo-4-(trifluoromethoxy)phenyl)carbamimidoyl)-3,3-difluoropyrrolidine-1-carboximidamide acetate] |  | 2 to 4
N=C(NCc1ccccc1Br)NC(=N)N1CCC(F)(F)CC1 [Example 40, N—(N-(2-bromobenzyl)carbamimidoyl)-4,4-difluoropiperidine-1-carboximidamide hydrochloride] |  | > 4
N=C(NCc1ccc(Br)cc1)NC(=N)N1CCC(F)(F)CC1 [Example 55, N—(N-(4-bromobenzyl)carbamimidoyl)-4,4-difluoropiperidine-1-carboximidamide acetate] |  | > 4
